Measurements from patent US6559100B1, “2-benzoyl-cyclohexane-1,3-diones” (BASF Aktiengesellschaft, priority 1997, dated 2003).

Tests used:
Test in all cases: Greenhouse herbicidal activity, post-emergence treatment
Conditions in all cases: 0.5 or 0.25 kg/ha of a.s.
Chenopodium album = assay type: in vivo, Chenopodium album (lambsquarters, goosefoot)
Description: (§1) The culture containers used were plastic pots containing loamy sand with approximately 3.0% of humus as the substrate. The seeds of the test plants were sown separately for each species.
(§2) For the post-emergence treatment, the test plants were first grown to a height of 3 to 15 cm, depending on the plant habit, and only then treated with the active compounds which had been emulsified or suspended in water. The test plants were for this purpose either sown directly and grown in the same containers, or they were first grown separately as seedlings and transplanted into the test containers a few days prior to treatment. The application rate for the post-emergence treatment was 0.5 or 0.25 kg/ha of a.s.
(§3) Depending on the species, the plants were kept at 10-25° C. or 20-35° C. . The test period extended over 2 to 4 weeks. During this time, the plants were tended, and their response to the individual treatments was evaluated.
(§4) The evaluation was carried out using a scale from 0 to 100. 100 means no emergence of the plants, or complete destruction of at least the aerial parts, and 0 means no damage, or normal course of growth.
(§5) The plants used in the greenhouse trials were from the following species:
(§6) Herbicidal activity when employed by the post-emergence method (greenhouse) [drawing 20]

Sinapis alba = assay type: in vivo, Sinapis alba (white mustard)
Description: as §1, §2, §3, §4, §5, §6

Solanum nigrum = assay type: in vivo, Solanum nigrum (black nightshade)
Description: as §1, §2, §3, §4, §5, §6

Setaria viridis = assay type: in vivo, Setaria viridis (green foxtail)
Description: as §1, §2, §3, §4, §5, §6

Measured: control of the weed (herbicidal activity)

CC1(C)C(=O)C(C(=O)c2ccc(Cl)c(CC3=NOCC3)c2Cl)=C(O)C(C)(C)C1=O [Compound 37.2, 2,4-Dichloro-3-((4,5-dihydro-3-isoxazolylmethyl)phenyl)(3,3,6,6-tetramethylcyclohexane-1,3,5-trione)methanone]
very efficient control: all assays above
